In US5023082A, “Sustained-release pharmaceutical compositions” (Yissum Research Development Company of the Hebrew …, priority 1986, dated 1991):

Experiment: Comparison of release rate of agents/salts from film-like implants
Format: physicochemical
From the text: The amount of the pharmacological agent added to the implant will vary, in a manner understood by those of ordinary skill in the art, depending upon such criteria as: […] The above criteria will depend upon such factors as the patient's age, height, weight, sex, medical history, etc. The pharmacological agent must be present in an amount sufficient to impart therapeutic effect to the pharmaceutical composition. The nature of the active agent in the implant also plays an important role in the control release mechanism. […] Different salts of the same active agent may be released at different rates.

- Release rate from film-like implant compared with tetracycline HCl (20% w/w per protein, same implant containing 20% w/w tetracycline HCl): more slowly
- Release rate from film-like implants compared with chlorhexidine HCl (same formulation, 20% (w/w) chlorhexidine per protein): more slowly
Structure (SMILES): N=C(NCCCCCCNC(=N)NC(=N)Nc1ccc(Cl)cc1)NC(=N)Nc1ccc(Cl)cc1 [chlorhexidine acetate]
